Results taken from patent US8410282B2, “Compounds as adenosine A1 receptor antagonists” (Palobiofarma, S.L., priority 2007, dated 2013).

Experiments:
[1] = target: T1, hA1 receptors (Homo sapiens, UniProt P30542); assay: Adenosine receptor subtype competition radioligand binding assay, hA1; settings: membranes from hA1 receptors transfected to CHO cells, [3H]-DPCPX as radioligand, 90 min at 25° C.; read-out: A1 Antagonism (Ki nM)
T1 construct: purchased Receptor Biology, Inc. (USA); host or cells: CHO cells
T1 sequence (P30542 1-326): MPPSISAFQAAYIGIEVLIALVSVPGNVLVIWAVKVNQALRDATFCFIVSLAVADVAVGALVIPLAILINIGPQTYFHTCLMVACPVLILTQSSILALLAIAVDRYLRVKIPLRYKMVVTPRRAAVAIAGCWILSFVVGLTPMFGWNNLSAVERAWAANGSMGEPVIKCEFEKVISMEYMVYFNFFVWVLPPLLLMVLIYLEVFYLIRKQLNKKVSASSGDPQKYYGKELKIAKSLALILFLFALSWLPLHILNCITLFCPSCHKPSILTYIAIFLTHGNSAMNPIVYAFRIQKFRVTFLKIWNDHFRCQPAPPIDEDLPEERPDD
Experimental: (§1) Pharmacological Activity Adenosine Receptor Subtype Competition Radioligand Binding Assay
(§2) Human membranes from recombinant adenosine receptors were purchased from Receptor Biology, Inc. (USA)
Competition assays were carried out by incubation of membranes from hA1 receptors transfected to CHO cells, [^3H]-DPCPX as radioligand, buffer (HEPES 20 mM (pH=7.4), 10 mM MgCl2, 100 mM NaCl, 2 units/ml adenosine deaminase), and unlabelled ligand in a total volume of 0.2 ml for 90 min at 25° C. R-PIA was used to determinate non-specific binding. Filter over Schleicher & Schuell GF/52 filters (pre-soaked 0.5% polyethylenimine) in a Brandel cell harvester. Unbound radioligand was removed with HEPES 30 mM (3×250 μl), NaCl (100 mM) and MgCl2 (10 mM).

[2] = target: T2, hA2a receptors (Homo sapiens, UniProt P29274); assay: Adenosine receptor subtype competition radioligand binding assay, hA2a; settings: membranes from hA2a receptors transfected to HEK293 cells, [3H]ZM241385 as radioligand, 90 min at 25° C.; read-out: A2a Antagonism (Ki nM)
T2 construct: purchased Receptor Biology, Inc. (USA); host or cells: HEK293 cells
Experimental: as §1, §2
Competition assays were carried out by incubation of membranes from hA2a receptors transfected to HEK293 cells, [^3H]ZM241385 as radioligand, buffer (50 mM Tris-HCl (pH=7.4), 10 mM MgCl2, 1 mM […], 2 units/ml adenosine deaminase), and unlabelled ligand in a total volume of 0.2 ml for 90 min at 25° C. NECA was used to determinate non-specific binding. Filter over Schleicher & Schuell GF/52 filters (pre-soaked 0.5% polyethylenimine) in a Brandel cell harvester. Unbound radioligand was removed with 3×3 ml ice-cold 50 mM Tris-HCl (pH=7.4), 0.9% NaCl.

T2 sequence (P29274 whole entry): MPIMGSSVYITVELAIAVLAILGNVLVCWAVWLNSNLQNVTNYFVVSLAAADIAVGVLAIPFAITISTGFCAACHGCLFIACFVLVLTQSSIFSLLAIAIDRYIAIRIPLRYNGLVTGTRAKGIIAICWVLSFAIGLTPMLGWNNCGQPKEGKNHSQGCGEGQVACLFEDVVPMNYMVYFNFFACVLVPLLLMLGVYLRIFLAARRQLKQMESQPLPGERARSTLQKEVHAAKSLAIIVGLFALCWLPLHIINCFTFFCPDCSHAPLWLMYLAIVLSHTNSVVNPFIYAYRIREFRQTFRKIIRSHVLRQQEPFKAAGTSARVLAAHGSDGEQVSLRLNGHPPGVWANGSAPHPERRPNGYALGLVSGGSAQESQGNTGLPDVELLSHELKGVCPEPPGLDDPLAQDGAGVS

Structure (SMILES)	Ki [1] [nM]	Ki [2] [nM]
N#Cc1sc(NC(=O)[C@@H]2CCC[C@H](C(=O)O)C2)nc1-c1ccccc1Cl (relative stereo) [Example 26, Cis-3-[4-(2-chlorophenyl)-5-cyano-1,3-thiazol-2-ylcarbamoyl]cyclohexanecarboxylic Acid]	31	3670
N#Cc1sc(NC(=O)[C@@H]2CC[C@H](C(=O)O)C2)nc1-c1ccccc1F (relative stereo) [Example 50, Cis-3-[5-cyano-4-(2-fluorophenyl)-1,3-thiazol-2-ylcarbamoyl]cyclopentanecarboxylic Acid]	16	> 1300
N#Cc1sc(NC(=O)[C@@H]2CCC[C@H](C(=O)O)C2)nc1-c1cccc(F)c1 (relative stereo) [Example 75, Cis-3-[5-cyano-4-(3-fluorophenyl)-1,3-thiazol-2-ylcarbamoyl]cyclohexanecarboxylic Acid]	14	1840
CC(C)(CCC(=O)O)C(=O)Nc1nc(-c2ccccc2)c(C#N)s1 [Example 2, 4-(5-cyano-4-phenyl-1,3-thiazol-2-ylcarbamoyl)-4-methylpentanoic Acid]	43	> 10000
N#Cc1sc(NC(=O)[C@H]2CC[C@@H](C(=O)O)CC2)nc1-c1ccccc1 [Example 10, Cis-4-(5-cyano-4-phenyl-1,3-thiazol-2-ylcarbamoyl)cyclohexane Carboxylic Acid]	7	1080
N#Cc1sc(NC(=O)[C@H]2CC[C@H](C(=O)O)CC2)nc1-c1cccc(Cl)c1 [Example 36, trans-4-[4-(3-chlorophenyl)-5-cyano-1,3-thiazol-2-ylcarbamoyl]cyclohexanecarboxylic Acid]	25	487
N#Cc1sc(NC(=O)[C@H]2CC[C@@H](C(=O)O)CC2)nc1-c1cccc(F)c1 [Example 77, Cis-4-[5-cyano-4-(3-fluorophenyl)-1,3-thiazol-2-ylcarbamoyl]cyclohexanecarboxylic Acid]	6	776

Other lines, results leading:

Ki [1] [nM]	Ki [2] [nM]	Structure (SMILES)
17	> 1200	N#Cc1sc(NC(=O)[C@@H]2CCC[C@H](C(=O)O)C2)nc1-c1ccccc1 (relative stereo) [Example 8, Cis-3-(5-cyano-4-phenyl-1,3-thiazol-2-ylcarbamoyl)cyclohexane Carboxylic Acid]
32	> 10000	N#Cc1sc(NC(=O)[C@@H]2CCC[C@H](C(=O)O)C2)nc1-c1cc(F)cc(F)c1 (relative stereo) [Example 114, Cis-3-[5-cyano-4-(3,5-difluorophenyl)-1,3-thiazol-2-ylcarbamoyl]cyclohexanecarboxylic Acid]
6.4	940	N#Cc1sc(NC(=O)C2CCC(C(=O)O)C2)nc1-c1ccccc1 (stereo not shown) [Example 5, 3-(5-cyano-4-phenyl-1,3-thiazol-2-ylcarbamoyl)cyclopentane Carboxylic Acid]
51	> 4000	CC(C)(CCC(=O)O)C(=O)Nc1nc(-c2cccc(F)c2)c(C#N)s1 [Example 68, 4-[5-cyano-4-(3-fluorophenyl)-1,3-thiazol-2-ylcarbamoyl]-4-methylpentanoic Acid]
